Where two headings read alike, the source gives them in different places.
Biological target: Kv1.5 potassium channel (Homo sapiens, UniProt P22460)
Assay: Electrophysiological studies: whole-cell patch clamp of Kv1.5 currents in CHO cells
Type: cell-based
Conditions: Chinese hamster ovary cells stably expressing Kv1.5, whole-cell voltage clamp
Method: Electrophysiological recordings of potassium currents in Chinese hamster ovary cells stably expressing the gene construct for the Kv1.5 potassium channel subunit were performed using the whole cell configuration of the patch clamp technique (Hamill et al., Pflugers Archiv 391:85, 1981). Cell lines expressing Kv1.5 were prepared using standard techniques known to those skilled in the art. Cells were plated on glass coverslips at a density of 2×10^4 cells/coverslip and used within 24-48 hours. Solutions used for electrophysiological recordings were as follows. Extracellular bathing solutions typically contain (in mM) 132 NaCl, 5.4 KCl, 1.8 CaCl2, 0.8 MgCl2, 10 HEPES, 5 glucose at pH 7.3. […] The coverslips were placed in a small chamber (volume ˜200 μl) on the mechanical stage of an inverted microscope and perfused (approximately 2 ml/min) with extracellular recording solution. Drug was applied using a series of narrow-bore glass capillary tubes (inner diameter ˜100 μm) positioned approximately 200 μm from the cell.
As soon as the current recording were stable, a compound representative of the present invention was superfused over the cell until steady-state block was observed. Using this technique, the effects of the compound on peak and steady-state current were determined at progressively increasing compound concentrations.
The testing results of selected compounds from Table 2 using this assay and the techniques described above are reported in Table 3 as the percent inhibition of Kv1.5 potassium channel currents at a single concentration of 0.1 μM.

[1] = read-out: Peak current inhibition at 0.1 μM (%)
[2] = read-out: Steady-state Current Inhibition at 0.1 μM (%)

Sequence of Kv1.5 potassium channel (P22460 whole entry): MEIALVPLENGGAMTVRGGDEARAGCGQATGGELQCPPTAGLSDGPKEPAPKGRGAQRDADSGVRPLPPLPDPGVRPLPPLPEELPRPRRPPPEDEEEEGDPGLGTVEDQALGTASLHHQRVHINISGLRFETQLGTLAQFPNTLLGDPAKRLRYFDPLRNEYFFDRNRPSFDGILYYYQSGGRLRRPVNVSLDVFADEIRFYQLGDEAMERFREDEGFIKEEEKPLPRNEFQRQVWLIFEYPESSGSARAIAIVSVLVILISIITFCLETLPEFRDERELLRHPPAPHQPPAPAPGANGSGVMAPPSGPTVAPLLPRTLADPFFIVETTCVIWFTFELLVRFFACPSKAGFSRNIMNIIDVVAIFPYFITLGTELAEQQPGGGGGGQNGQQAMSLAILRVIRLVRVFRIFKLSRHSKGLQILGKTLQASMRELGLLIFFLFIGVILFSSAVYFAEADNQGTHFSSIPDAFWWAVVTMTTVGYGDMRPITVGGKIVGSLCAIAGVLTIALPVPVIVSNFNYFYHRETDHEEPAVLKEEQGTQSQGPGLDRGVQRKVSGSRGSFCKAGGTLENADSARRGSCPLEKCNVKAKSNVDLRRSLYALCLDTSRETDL

Structure (SMILES)	inhibition at 0.1 µM [1] [%]	inhibition at 0.1 µM [2] [%]
C[C@@H](CC(=O)N(Cc1nccn1C)c1ccc2c(c1)[C@H](NS(=O)(=O)c1cccc(F)c1)CCC2)c1ccc(F)cc1 [Example 26]	52	76
C[C@@H](CC(=O)N(Cc1nccn1C)c1ccc2c(c1)[C@@H](NS(=O)(=O)c1ccc(F)cc1)CCC2)c1ccccc1 [Example 9]	53	61
Cc1ncc(CN(C(=O)C[C@@H](C)c2ccccc2)c2ccc3c(c2)[C@@H](NS(=O)(=O)c2ccccc2)CCC3)n1C(C)C [Example 21]	58	67
C[C@@H](CC(=O)N(Cc1nccn1C)c1ccc2c(c1)[C@@H](NS(=O)(=O)c1cccc(Cl)c1)CCC2)c1ccccc1 [Example 6]	30	81
COc1ccc(S(=O)(=O)N[C@H]2CCCc3ccc(N(Cc4nccn4C)C(=O)C[C@@H](C)c4ccccc4)cc32)cc1 [Example 18]	72	84
CC(CC(=O)N(Cc1nccn1C)c1ccc2c(c1)C(NS(=O)(=O)c1ccc(F)cc1)CCC2)c1ccccc1 (centres unmarked) [Example 1]	42	67
C[C@H](CC(=O)N(Cc1nccn1C)c1ccc2c(c1)[C@@H](NS(=O)(=O)c1ccccc1)CCC2)c1ccccc1 [Example 4]	86	89
C[C@@H](CC(=O)N(Cc1nccn1C)c1ccc2c(c1)[C@@H](NS(=O)(=O)c1ccccc1)CCC2)c1ccccc1 [Example 5]	45	78
C[C@@H](CC(=O)N(Cc1nccn1C)c1ccc2c(c1)[C@H](NS(=O)(=O)c1cccs1)CCC2)c1ccccc1 [Example 19]	53	79
C[C@@H](CC(=O)N(Cc1nccn1C)c1ccc2c(c1)[C@H](NS(=O)(=O)c1cccc(F)c1)CCC2)c1ccccc1 [Example 16]	88	100
Cc1cccc(CN(C(=O)C[C@@H](C)c2ccccc2)c2ccc3c(c2)[C@@H](NS(=O)(=O)c2ccccc2)CCC3)n1 [Example 23]	75	90
C[C@H](CC(=O)N(Cc1nccn1C)c1ccc2c(c1)[C@@H](NS(=O)(=O)c1cccc(Cl)c1)CCC2)c1ccccc1 [Example 2]	86	96
Cc1cccc(CN(C(=O)C[C@H](C)c2ccccc2)c2ccc3c(c2)[C@H](NS(=O)(=O)c2ccccc2)CCC3)n1 [Example 25]	26	50
Cc1ncc(CN(C(=O)C[C@@H](C)c2ccccc2)c2ccc3c(c2)[C@@H](NS(=O)(=O)c2cccc(F)c2)CCC3)n1C(C)C [Example 20]	52	64
C[C@H](CC(=O)N(Cc1nccn1C)c1ccc2c(c1)[C@@H](NS(=O)(=O)c1cccc(F)c1)CCC2)c1ccccc1 [Example 12]	68	85
C[C@H](CC(=O)N(Cc1nccn1C)c1ccc2c(c1)[C@@H](NS(=O)(=O)c1ccc(F)c(Cl)c1)CCC2)c1ccccc1 [Example 3]	84	93
Cc1cccc(CN(C(=O)C[C@@H](C)c2ccccc2)c2ccc3c(c2)[C@@H](NS(=O)(=O)c2ccc(F)c(Cl)c2)CCC3)n1 [Example 24]	48	65
C[C@@H](CC(=O)N(Cc1nccn1C)c1ccc2c(c1)[C@H](NS(=O)(=O)c1cccc(Cl)c1)CCC2)c1ccccc1 [Example 17]	84	97
C[C@@H](CC(=O)N(Cc1nccn1C)c1ccc2c(c1)[C@H](NS(=O)(=O)c1ccccc1)CCC2)c1ccccc1 [Example 11]	76	91
